Measurements: patent US11077035B2, “Hair treatment compositions and methods” (SYTHEON LIMITED, priority 2017, dated 2021)

Tests used:
Singlet oxygen quenching = format: biochemical
Excerpt: The first study evaluated the quenching ability of the aryl alkanones versus αTocopherol. The test methodology employed is the method of W. Mullen et al., J of Agriculture & Food Chemistry, 59(9):3754-3762, 2011).

[1] = for change in fluorescence decay pattern with and without ten-fold excess of CaCl2 (selectivity Cu^2+ over Ca^2+): comparison of studies 2A and 2B; for Cu^2+ chelation capability, in words: with CaCl2 (study 2A)
Method: Food Chem: 50(10); 2772-2777, 2002
The first chelation study (2A) evaluated the Cu^2+ chelation capability of the test and comparative chelators in the presence of excess Ca^2+. Here, a Fenton reaction was initiated with a mixture of Cu^2+, CaCl2 and hydrogen peroxide at alkaline condition, the mixture comprising [CuCl2]=200 μM, [H2O2]=0.055 μM, [CaCl2]2.3 mM, and [FL]=6.20×10^−8 M. The test compounds were evaluated at a concentration of 600 μM for each of Compounds 1D, 1E and 1F and Deferiprone (a 3 molar excess) and 200 μM for each of EDDS and EDTA.

[2] = Chelation study 2C: Fe^2+ chelation; conditions: for % Remaining of FL (20 min) / % Remaining of FL (40 min) / % Remaining of FL (80 min): Fe^2+ ions 200 μM
[3] = Chelation study 2D: Fe^3+ chelation; conditions: for Fe^3+ chelation capability, in words: study 2D; for % Remaining of FL (20 min) / % Remaining of FL (40 min) / % Remaining of FL (80 min): Fe^3+ ions
[4] = Stability under singlet oxygen environment (HPLC); format: physicochemical
Method: A second study was performed to determine the stability of the aryl alkanones and α tocopherol under a singlet oxygen environment. In this study, 5 ml of 1 mg/ml solution of each test compound (in DMSO) was mixed with 5 ml of a solution (pH 5) containing 0.16 mg/ml lithium molybdate, 4 ml 0.01 M NaOH, and 5 ml of 0.015% H2O2. 500 μl from each mixture was taken every 2 mins and added to 1 ml of 1 mg/ml curcumin solution (in DMSO) to stop the reaction. The mixture was then injected into an HPLC to monitor product degradation.

% Remaining of FL (20 min) [2] [%]	% Remaining of FL (40 min) [2] [%]	% Remaining of FL (80 min) [2] [%]	SMILES	Antioxidant Power against singlet oxygen (Singlet oxygen quenching)	change in fluorescence decay pattern with and without ten-fold excess of CaCl2 (selectivity Cu^2+ over Ca^2+) [1]	Cu^2+ chelation capability, in words [1]	Fe^3+ chelation capability, in words [3]	also measured
99.6	99.2	99.2	COc1ccc(CC(C(C)=O)C(C)=O)cc1 [Compound 1E, 3-(4-methoxybenzyl)-2,4-pentanedione]	4,374 μmole Trolox equivalent/g	very little change	almost completely chelated	–	–
98.6	98.1	97.7	COc1cc(CC(C(C)=O)C(C)=O)cc(OC)c1OC [Compound 1F, 3-(3,4,5-trimethoxybenzyl)-2,4-pentanedione]	6,359 μmole Trolox equivalent/g	very little change	almost completely chelated	–	Stability % Product remaining ([4]; 2 min, 0.5 mg/ml, pH 5): 92%; Stability % Product remaining ([4]; 4 min, 0.5 mg/ml, pH 5): 87%; Stability % Product remaining ([4]; 0.1 h, 0.5 mg/ml, pH 5): 85%; Stability % Product remaining ([4]; 8 min, 0.5 mg/ml, pH 5): 81%; Stability % Product remaining ([4]; 10 min, 0.5 mg/ml, pH 5): 80%
98.3	98.3	98.3	COc1ccc(CC(C(C)=O)C(C)=O)cc1OC [Compound 1D, 3-(3,4-dimethoxybenzyl)-2,4-pentanedione]	4,590 μmole Trolox equivalent/g	very little change	almost completely chelated	–	–

Further lines, the compound ahead of its results:

SMILES	% Remaining of FL (20 min) [2] [%]	% Remaining of FL (40 min) [2] [%]	% Remaining of FL (80 min) [2] [%]	Antioxidant Power against singlet oxygen (Singlet oxygen quenching)	change in fluorescence decay pattern with and without ten-fold excess of CaCl2 (selectivity Cu^2+ over Ca^2+) [1]	Cu^2+ chelation capability, in words [1]	Fe^3+ chelation capability, in words [3]	also measured
O=C(O)CN(CCN(CC(=O)O)CC(=O)O)CC(=O)O [EDTA, ethylenediamine tetraacetic acid, reference compound]	–	–	–	–	–	poor chelating capabilities	moderate chelating capabilities	–
O=C(O)CC(NCCNC(CC(=O)O)C(=O)O)C(=O)O (stereo not shown) [EDDS, ethylenediamine-N,N′-disuccinic acid, reference compound]	–	–	–	–	–	poor chelating capabilities	–	chelation of copper, in words ([1]; general statement on applicant's studies in the background): not an effective chelating agent
COc1cc(CC(C(C)=O)C(C)=O)ccc1O [Compound 1M, 3-(3-methoxy-4-hydroxybenzyl)-2,4-pentanedione]	–	–	–	7,180 μmole Trolox equivalent/g	–	–	–	Stability % Product remaining ([4]; 2 min, 0.5 mg/ml, pH 5): 95%; Stability % Product remaining ([4]; 4 min, 0.5 mg/ml, pH 5): 91%; Stability % Product remaining ([4]; 0.1 h, 0.5 mg/ml, pH 5): 88%; Stability % Product remaining ([4]; 8 min, 0.5 mg/ml, pH 5): 85%; Stability % Product remaining ([4]; 10 min, 0.5 mg/ml, pH 5): 82%; % Remaining of FL (20 min) [3]: 100%; % Remaining of FL (40 min) [3]: 100%; % Remaining of FL (80 min) [3]: 100%
CCOC(=O)C(C)C(Cc1ccc(O)c(OC)c1)C(C)=O (stereo not shown) [Compound 2M, 3-(3-methoxy-4-hydroxybenzyl)-4-ethylester-2-pentanone]	–	–	–	–	–	–	–	% Remaining of FL (20 min) [3]: 99.8%; % Remaining of FL (40 min) [3]: 99.3%; % Remaining of FL (80 min) [3]: 98.5%
CC(=O)N(O)CCCCCNC(=O)CCC(=O)N(O)CCCCCNC(=O)CCC(=O)N(O)CCCCCN [Desferal, reference compound]	–	–	–	–	–	–	moderate chelating capabilities	–
Cc1c(O)c(=O)ccn1C [Deferiprone, reference compound]	–	–	–	–	–	moderate chelation capability	performed poorly	Fe^2+ chelation capability, in words ([2]; study 2C): good chelation capability
Cc1c(C)c2c(c(C)c1O)CC[C@@](C)(CCC[C@H](C)CCC[C@H](C)CCCC(C)C)O2 [α Tocopherol, reference compound]	–	–	–	2,636 μmole Trolox equivalent/g	–	–	–	Stability % Product remaining ([4]; singlet oxygen environment (lithium molybdate/H2O2), 2 min): 73%; Stability % Product remaining ([4]; singlet oxygen environment (lithium molybdate/H2O2), 4 min): 58%; Stability % Product remaining ([4]; singlet oxygen environment (lithium molybdate/H2O2), 6 min): 47%; Stability % Product remaining ([4]; singlet oxygen environment (lithium molybdate/H2O2), 8 min): 39%; Stability % Product remaining ([4]; singlet oxygen environment (lithium molybdate/H2O2), 10 min): 35%
